From US20100305303A1, “INHIBITING AGENT FOR INHIBITION OF ANGIOGENESIS, A METHOD FOR PREPARING THE AGENT, A METHOD FOR MODIFYING THE AGENT AND ITS USE FOR MANUFACTURING A MEDICAMENT FOR TREATING TUMOR” (priority 2007, published 2010)
Residues, ends and D or L forms follow the SMILES beside them. No end group written: not given here. *: point of attachment. Palmitoyl = CCCCCCCCCCCCCCCC(=O)*

Columns and labels:
[1] = Half-life of polypeptides in plasma at 37° C. (HPLC); assay type: in vitro ADME; conditions: 800 μg/ml, 20 μl injected on HPLC
Procedure: Survey on the half-life of polypeptides in plasma at 37° C. after modification. Preparation of blood drug samples: after crude drug (volume V) (800 ug/ml) +1V plasma were mixed and diluted with 2V water evenly, incubated for 0, 5, 30 min at 37° C. respectively, immediately heated at 80° C. for 30 min; the negative control: after 1V plasma were diluted and mixed with 3 V water evenly, and heated for 30 min at 80° C. The positive control group: after 1V crude drug (800 ug/ml) were diluted and mixed evenly with 3V water, heated for 30 min at 80° C. The samples were the modified products, […] at 14000 rpm for 10 min. The supernatant was fetched for HPLC analysis with the injection size of 20 ul.

[2] = tested on: Bel-7402 tumor cells; assay: Binding of FITC labeled polypeptides to integrin-expressing tumor cells by flow cytometry; design: unit not given here; conditions: FITC labeled polypeptide, dosage 1 μg/μl, Bel-7402 cells, 25 min
Procedure: Analysis of the binding of polypeptide s and integrin by flow cytometry. Bel-7402 tumor cells were used, which can express integrin. The cells were cultured in a 24-well plate, and the cells were collected and washed with ice-cold PBS twice. Before labeling, the cells were suspended in PBS +1% BSA, maintained for 30 min, added with 1 μl FITC labeled polypeptide s (P1, P2, P3, P4, P5, P6, P7, P8, P9, P10, P11, P12, P13, P14, P15, P16, RGD and ES-2) for reaction for 25 min. After labeling, the cells were collected and washed twice with PBS, suspended again in 400 μl PBS and analysis was conducted with a flow cytometry (Becton Dickinson, USA). FITC fluorescence was determined at FL1 channel The cells with FITC feature would be further analyzed.

[3] = tested on: B16F10 melanoma cells; assay: In vivo anti-tumor test, B16F10 melanoma; conditions: B16F10 in C57BL/6 mice, 5 mg/kg/d contralateral subcutaneous injection, 9th day
Procedure: The cultured B16F10 melanoma cells were treated with 0.05% trypsin, centrifuged at 1000 rpm for 5 min, suspended again in PBS, inoculated subcutaneously with 0.1 ml of 5×10^5 cells at the body sides of C57BL/6 mice (6-8 weeks). When the average tumor size reached 200 mm3-300 mm3, the mice were randomly divided into two groups, 7 mice for each group, of which, one group of mice were treated with RGD-ED, and the other group were treated with ED not containing RGD, with the doses of 5 mg/kg/d for the two groups, and the control group of mice were subject to PBS injection. The treatment method was contralateral subcutaneous injection of the inoculated tumors.

[4] = tested on: human liver cancer SGC7901; assay: In vivo anti-tumor test, SGC7901 xenograft; conditions: SGC7901 in nude mice, 3 mg/kg/d contralateral subcutaneous injection, 10th day
Procedure: (§1) The cultured human liver cancer SGC7901 was treated with 0.05% trypsin, centrifuged at 1000 rpm for 5 min, suspended again in PBS, inoculated subcutaneously with 0.1 ml of 5×10^5 cells on the body sides of nude mice (6-8 weeks). When the average tumor size reached 100 mm^3-200 mm^3, the mice were randomly divided into three groups, 7 mice for each group, of which, one group of mice were treated with RGD-ED, one group were treated with RGD-ED modified with liposome, and the third group were treated with RGD-ED modified with polyethylene glycol, with the doses of 3 mg/kg/d for the three groups, and the control group of mice were subject to PBS injection. The treatment method was contralateral subcutaneous injection of the inoculated tumors.
as §1, with “with liposome-modified RGD-ED,” for “with RGD-ED modified with liposome,”, “with” for “with RGD-ED modified with”, “polyethylene glycol-modified RGD-ED,” for “polyethylene glycol,”, “injection. […]” for “injection. The treatment method was contralateral subcutaneous injection of the inoculated tumors.”

[5] = tested on: NIH 3T3 cells; assay: Cell proliferation analysis on non-endothelial cells; assay type: cell-based; conditions: non-endothelial NIH 3T3 cells, 48 h
Procedure: The culture of BCE cells and NIH 3T3 cells, method: the culture solution DMEM contained 10% inactivated calf serum (BCS), 1% antibiotics and 3 ng/ml bFGF. Cell proliferation analysis method is as follows: washed the cells with PBS, digested with trypsin, added with culture solution suspension cells and centrifuged and collected cells, and regulated the cell concentrations to 25,000 cells/ml. The cells were moved to 6-well plates (0.5 ml/well) and cultured for 24 h. Replaced the culture medium as 1 ml DMEM, 5% BCS, 1% antibiotics, 1 ng/ml bFGF. Different doses of samples were added to each hole, and further cultured for 48 h, digested the cells with trypsase, re-suspended in PBS, fixed with 70% ice-cold ethanol and stained with 7-AAD, and then conducted analysis with flow cytometry.

[6] = tested on: CAMs; assay: CAM analysis of anti-angiogenic activity; assay type: in vivo, chick
Procedure: To detect the in vivo anti-angiogenic activity, CAM analysis was carried out. All the tests were carried out on the ultra-clean platform under sterile conditions. The 6-day disinfected chick embryos were cultured under the condition of 37° C., 90% humidity. After 2 days, the top of each egg was punched and the reagents were dripped into the sterile Whatman filter paper, then put on the CAMs vascular clustered area, cultivated for 48 hours, and observed the chick embryos and CAMs and took pictures.

Compound | Binding Value [2] | other results
CCCCCCCCCCCCCCCC(=O)N[C@@H](CCCNC(=N)N)C(=O)NCC(=O)N[C@@H](CC(=O)O)C(=O)NCC(=O)NCC(=O)NCC(=O)NCC(=O)N[C@H](C(=O)N[C@H](C(=O)N[C@@H](CCCNC(=N)N)C(=O)N[C@@H](CCCNC(=N)N)C(=O)N[C@@H](C)C(=O)N[C@@H](CC(=O)O)C(=O)N[C@@H](CCCNC(=N)N)C(=O)N[C@@H](C)C(=O)N[C@@H](C)C(=O)N[C@H](C(=O)N1CCC[C@H]1C(=O)O)C(C)C)C(C)C)[C@@H](C)CC [Palmitic acid-modified substance] (Palmitoyl-RGDGGGGIVRRADRAAVP-OH; C-terminus assumed) |  | half-life [1]: 12 min
ACDCRGDCFCIVRRADRAAVP (cysteine pairing not given here) [P10] | 63.28 | 
ACDCRGDCFCIVRRADRAAVPACDCRGDCFC (cysteine pairing not given here) [P13] | 59.25 | 
Ala-Cys-Asp-Cys-Arg-Gly-Asp-Cys-Phe-Cys-Ile-Val-Arg-Arg-Ala-Asp-Arg-Ala-Ala-Val-Pro-linker-Ala-Cys-Asp-Cys-Arg-Gly-Asp-Cys-Phe-Cys [P15] | 64.11 | 
Ala-Cys-Asp-Cys-Arg-Gly-Asp-Cys-Phe-Cys-linker-Ile-Val-Arg-Arg-Ala-Asp-Arg-Ala-Ala-Val-Pro [P9] | 66.04 | 
Ala-Cys-Asp-Cys-Arg-Gly-Asp-Cys-Phe-Cys-linker-Ile-Val-Arg-Arg-Ala-Asp-Arg-Ala-Ala-Val-Pro-Ala-Cys-Asp-Cys-Arg-Gly-Asp-Cys-Phe-Cys [P14] | 58.32 | 
Ala-Cys-Asp-Cys-Arg-Gly-Asp-Cys-Phe-Cys-linker-Ile-Val-Arg-Arg-Ala-Asp-Arg-Ala-Ala-Val-Pro-linker-Ala-Cys-Asp-Cys-Arg-Gly-Asp-Cys-Phe-Cys [P16] | 66.12 | 
Arg-Gly-Asp-Ile-Val-Arg-Arg-Ala-Asp-Arg-Ala-Ala-Val-Pro-linker-Arg-Gly-Asp [P7] | 60.25 | 
Arg-Gly-Asp-linker-Ile-Val-Arg-Arg-Ala-Asp-Arg-Ala-Ala-Val-Pro-Arg-Gly-Asp [P8] | 58.30 | 
Arg-Gly-Asp-linker-Ile-Val-Arg-Arg-Ala-Asp-Arg-Ala-Ala-Val-Pro-linker-Arg-Gly-Asp [P6] | 60.27 | 
IVRRADRAAVP [ED, reference compound] | 18.35 | tumor inhibition rate [3]: 28%
IVRRADRAAVPACDCRGDCFC (cysteine pairing not given here) [P12] | 67.28 | 
IVRRADRAAVPRGD [P4] | 60.13 | 
Ile-Val-Arg-Arg-Ala-Asp-Arg-Ala-Ala-Val-Pro-linker-Ala-Cys-Asp-Cys-Arg-Gly-Asp-Cys-Phe-Cys [P11] | 60.20 | 
Ile-Val-Arg-Arg-Ala-Asp-Arg-Ala-Ala-Val-Pro-linker-Arg-Gly-Asp [P3] | 58.96 | 
RGDGGGGIVRRADRAAVP [P1] | 63.21 | half-life [1]: 7 min
RGDIVRRADRAAVP [P2] | 62.15 | 
RGDIVRRADRAAVPRGD [P5] | 59.40 | 
arginine-glycine-aspartic acid [RGD, reference compound] | 59.45 | 
designed angiogenesis inhibitor: ED polypeptide joined to a sequence containing Arg-Gly-Asp, expressed recombinantly in E. coli; exact sequence not stated [RGD-ED] |  | tumor inhibition rate [3]: 58%; tumor inhibition rate [4]: 68%; inhibitory effect on NIH 3T3 cell proliferation [5]: no inhibitory effect; inhibition of neovascularization and angiogenesis in CAM ([6]; 0.05 μg, 0.1 μg and 0.2 μg, 48 hours): significantly inhibit; chick embryo death in CAM test ([6]; 0.5 μg): cause chick embryo death; inhibition of angiogenesis in CAM ([6]; 0.5 μg, 48 hours): completely inhibit
